Test results from paper PMC10551024, “A deazariboflavin chromophore kinetically stabilizes reduced FAD state in a bifunctional cryptochrome” (Scientific Reports, 2023).

What was measured:
Assay type in all cases: binding
Xl64 [1] = biological target: T1, Xl64 (Xenopus laevis, UniProt Q9I910); experiment: UV/vis absorption after incubation and gel filtration; conditions: synthetic 8-HDF, 100 µM with 20 µM protein, on ice; secondary pocket, antenna chromophore; protein holds FAD
T1 construct: gene Xl64phr; recombinant, pET-28a(+), E. coli C41(DE3)/pLysS
T1 sequence (Q9I910 1-526): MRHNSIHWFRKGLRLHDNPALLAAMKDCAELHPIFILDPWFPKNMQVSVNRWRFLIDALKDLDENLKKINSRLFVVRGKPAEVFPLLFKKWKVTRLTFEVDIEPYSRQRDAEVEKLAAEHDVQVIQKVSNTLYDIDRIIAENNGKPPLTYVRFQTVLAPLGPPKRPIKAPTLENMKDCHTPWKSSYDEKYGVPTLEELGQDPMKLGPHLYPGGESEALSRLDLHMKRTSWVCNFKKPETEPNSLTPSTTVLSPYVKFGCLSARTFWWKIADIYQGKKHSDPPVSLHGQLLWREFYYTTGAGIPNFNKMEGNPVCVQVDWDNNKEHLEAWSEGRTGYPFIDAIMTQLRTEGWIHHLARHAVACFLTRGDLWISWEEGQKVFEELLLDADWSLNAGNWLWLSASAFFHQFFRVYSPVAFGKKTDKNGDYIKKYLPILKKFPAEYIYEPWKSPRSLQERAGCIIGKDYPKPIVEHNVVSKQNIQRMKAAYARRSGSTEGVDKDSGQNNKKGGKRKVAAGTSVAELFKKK

CraCRY [2] = biological target: T2, CraCRY (Chlamydomonas reinhardtii, UniProt A8J8W0); experiment: as above; conditions: synthetic 8-HDF, 100 µM with 20 µM protein, on ice; secondary pocket, antenna chromophore; protein holds FAD
T2 construct: gene CHLRE_06g278251v5; lacks C-terminal tail (497-595); His-tagged, pET-28a(+), E. coli BL21(DE3); TALON and heparin purified
T2 sequence (A8J8W0 1-496): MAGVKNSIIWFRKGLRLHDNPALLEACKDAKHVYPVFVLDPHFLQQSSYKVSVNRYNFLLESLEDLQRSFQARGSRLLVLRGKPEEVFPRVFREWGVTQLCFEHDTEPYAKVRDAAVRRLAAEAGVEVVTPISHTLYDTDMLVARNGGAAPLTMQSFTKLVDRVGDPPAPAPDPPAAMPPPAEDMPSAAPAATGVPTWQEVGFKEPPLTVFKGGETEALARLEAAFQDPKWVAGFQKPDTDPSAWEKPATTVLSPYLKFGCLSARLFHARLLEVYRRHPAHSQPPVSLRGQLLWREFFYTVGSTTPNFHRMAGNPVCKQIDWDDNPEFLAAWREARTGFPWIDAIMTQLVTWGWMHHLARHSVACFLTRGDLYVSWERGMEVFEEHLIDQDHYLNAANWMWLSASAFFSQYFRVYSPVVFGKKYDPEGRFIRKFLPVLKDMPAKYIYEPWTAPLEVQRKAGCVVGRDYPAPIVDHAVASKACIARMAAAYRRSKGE

At64 [3] = biological target: T3, At64 (Arabidopsis thaliana, UniProt O48652); experiment: UV/vis spectroscopy of purified holoprotein; xanthine/xanthine oxidase redox titration; conditions: co-purified FAD; pH 7.0, Safranin T reference
T3 construct: gene UVR3; recombinant, pET-28a(+), E. coli C41(DE3)/pLysS
T3 sequence (O48652 20-556): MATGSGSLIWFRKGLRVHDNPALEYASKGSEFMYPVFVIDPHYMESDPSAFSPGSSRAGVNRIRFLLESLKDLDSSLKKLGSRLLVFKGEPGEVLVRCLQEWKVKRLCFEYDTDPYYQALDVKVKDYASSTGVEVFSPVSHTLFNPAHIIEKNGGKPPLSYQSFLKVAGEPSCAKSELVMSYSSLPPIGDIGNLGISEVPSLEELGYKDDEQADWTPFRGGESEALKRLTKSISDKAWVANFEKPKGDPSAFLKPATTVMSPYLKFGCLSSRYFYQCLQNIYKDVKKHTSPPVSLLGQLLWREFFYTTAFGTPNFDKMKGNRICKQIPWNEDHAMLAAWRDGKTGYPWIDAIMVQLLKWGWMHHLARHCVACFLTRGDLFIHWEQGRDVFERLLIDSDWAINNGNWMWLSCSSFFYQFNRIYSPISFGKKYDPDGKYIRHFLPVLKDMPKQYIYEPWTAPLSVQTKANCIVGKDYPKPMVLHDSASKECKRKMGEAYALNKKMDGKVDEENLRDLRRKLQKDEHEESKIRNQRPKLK

Xl64 [4] = biological target: T1, Xl64; experiment: as above; conditions: co-purified FAD; pH 7.0, Safranin T reference
At64 [5] = biological target: T4, At64 (Arabidopsis thaliana, UniProt O48652, DEL46-53); experiment: as above; conditions: At64-ΔExLoop, extended loop Ser46 to Pro53 deleted; co-purified FAD; pH 7.0, Safranin T reference
T4 construct: gene UVR3; recombinant, pET-28a(+), E. coli C41(DE3)/pLysS
T4 sequence (O48652 with tags, fused parts or gaps DEL46-53): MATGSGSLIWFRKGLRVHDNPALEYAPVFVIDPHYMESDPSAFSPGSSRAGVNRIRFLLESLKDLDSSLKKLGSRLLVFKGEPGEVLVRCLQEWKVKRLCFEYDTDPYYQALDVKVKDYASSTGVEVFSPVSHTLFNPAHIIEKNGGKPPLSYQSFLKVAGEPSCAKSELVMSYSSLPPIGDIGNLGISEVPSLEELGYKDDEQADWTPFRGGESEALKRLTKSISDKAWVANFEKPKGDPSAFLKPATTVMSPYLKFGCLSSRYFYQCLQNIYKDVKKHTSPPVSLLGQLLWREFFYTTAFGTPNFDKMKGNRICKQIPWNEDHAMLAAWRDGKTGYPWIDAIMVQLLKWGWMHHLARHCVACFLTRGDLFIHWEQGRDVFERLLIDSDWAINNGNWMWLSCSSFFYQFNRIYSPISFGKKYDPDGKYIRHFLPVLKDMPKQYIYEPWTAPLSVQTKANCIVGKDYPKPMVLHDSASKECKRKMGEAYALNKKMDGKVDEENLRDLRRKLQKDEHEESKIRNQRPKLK

CraCRY [6] = biological target: T2, CraCRY; experiment: as above; conditions: co-purified FAD; pH 7.0, Safranin T reference

absorption maximum of the complex (Xl64 [1]) | absorption maximum of the complex (CraCRY [2]) | SMILES | UV/vis spectroscopy of purified holoprotein; xanthine/xanthine oxidase redox tit (At64 [3]) | UV/vis spectroscopy of purified holoprotein; xanthine/xanthine oxidase redox tit (Xl64 [4]) | UV/vis spectroscopy of purified holoprotein; xanthine/xanthine oxidase redox tit (At64 [5]) | UV/vis spectroscopy of purified holoprotein; xanthine/xanthine oxidase redox tit (CraCRY [6])
441 nm | 448 nm | O=c1nc2n(C[C@H](O)[C@H](O)[C@H](O)CO)c3cc(O)ccc3cc-2c(=O)[nH]1 [8-HDF, 8-hydroxy-7,8-didemethyl-5-deazariboflavin] |  |  |  | 
 |  | Cc1cc2nc3c(=O)[nH]c(=O)nc-3n(C[C@H](O)[C@H](O)[C@H](O)COP(=O)(O)OP(=O)(O)OC[C@H]3O[C@@H](n4cnc5c(N)ncnc54)[C@H](O)[C@@H]3O)c2cc1C [FAD, flavin adenine dinucleotide] | the Em,FAD values of the tested proteins (Xl64, At64, and CraCRY) were identical | the Em,FAD values of the tested proteins (Xl64, At64, and CraCRY) were identical | the deletion of the extended loop did not affect the FAD binding site | the Em,FAD values of the tested proteins (Xl64, At64, and CraCRY) were identical
